Measurements from patent US9724300B2, “Long-lasting, controlled-release local anesthetic liposome preparation” (Terumo Kabushiki Kaisha, priority 2012, dated 2017).
Counter-ions that a name gives are not always drawn.

Tested on: postoperative pain model of rats
Experiment: Postoperative pain model of rats (foot sole pain model), von Frey filament test
Format: in vivo, male Wistar rats
Protocol: A pentobarbital sodium injection (Nembutal injection, made by Sumitomo Dainippon Pharma Co., Ltd.) (0.3 mL) was intraperitoneally administered to male Wistar rats for anesthesia. Thereafter, a skin incision was made with a No. 11 scalpel blade (made by FEATHER Safety Razor Co., Ltd.) longitudinally at a position of 5 mm from the heel of the left foot bottom. The plantaris muscle was taken out from the incision site, followed by longitudinal incision. Subsequently, the skin was subjected to a knotted suture with a 5-0 nylon thread by double stitches. Moreover, a […] was applied in a single layer thereonto so as not to permit the administered controlled-release preparation to leak. […] More particularly, using the von Frey hair set (commercial name: Touch-Test, made by North Coast Medical Inc.) requiring a given stress before bending, this was pressed against the operated site of rats vertically from beneath the mesh of a gauge wherein rats were accommodated, whereupon a stress (a withdrawal threshold against mechanical stimuli) was determined at the time when the rat raised paws in surprise. […] Using the postoperative pain model of rat set out above, the analgesic effect of the bupivacaine hydrochloride-containing, controlled-release preparation of Example 1 was evaluated according to the von Frey filament test. […]

Structure (SMILES)	analgesic effect (increase of threshold value) (ropivacaine hydrochloride itself (stock solution), similar postoperative pain model of rat)	analgesic effect (increase of threshold value) (bupivacaine hydrochloride itself (stock solution), similar postoperative pain model of rats)
CCCN1CCCC[C@H]1C(=O)Nc1c(C)cccc1C [ropivacaine hydrochloride, Ropivacaine hydrochloride]	no analgesic effect was obtained even at the postoperative first day	–
CCCCN1CCCCC1C(=O)Nc1c(C)cccc1C (centres unmarked) [bupivacaine hydrochloride, Bupivacaine hydrochloride]	–	no analgesic effect was obtained even at the postoperative first day
